For data set [1], the system named is NCI-H716 cells. The data set is described as follows: GLP-1 synthesis and secretion in NCI-H716 cells. The note with it: for GLP-1 secretion: in vitro; for total GLP-1 (GLP-1 synthesis): media + cell lysates; for total GLP-1 (GLP-1 synthesis) / GLP-1 secretion by CA7S extracted from cecal contents of SG mice: vs DMSO control; for GLP-1 secretion by CA7S extracted from cecal contents of SG mice: 500 μM. The class given is cell-based, human. The protocol:
GLP-1 synthesis and secretion were measured in matrigel-polarized NCI-H716 cells. […] (FIG. 28B)
Treatment with compounds. […] The cells were allowed to grow for 2 days in complete RPMI media. […] The concentration of DMSO was kept constant throughout the treatments and used as a negative control. Cells were incubated at 37° C. in an atmosphere of 5% CO2 for 2 hours. After the incubation period, cell culture media was collected in Eppendorf tubes containing 1% trifluoroacetic acid (TFA, Sigma) in sterile purified water (GenClone) to make a final TFA concentration of 0.1% and frozen at −80° C. for further GLP-1 measurements. Cells on cell culture plates were placed on ice and gently washed with PBS (GenClone). Cells used for GLP-1 measurements were treated with ice-cold cell lysis solution of 1% TFA, 1N hydrochloric acid, 5% formic acid, and 1% NaCl (all from Sigma), scraped off of the Matrigel coating, and collected in 96-well plates for peptide purification. Lysates were stored at −80° C. for further analysis.
GLP-1 measurement. Total GLP-1 peptide measurements were performed using the GLP-1 EIA Kit (Sigma, Cat. No. RAB0201) according to manufacturer's instructions. Cell culture media and cell lysates were subjected to peptide purification using Sep Pak C18 Classic columns (Waters Corporation, Milford, Mass.). The column was pretreated with a solution of 0.1% TFA in 80% isopropyl alcohol (EMD Millipore) and equilibrated with 0.1% TFA in water. Cell culture media and cell lysates were loaded onto the column and washed with […]. The peptides were eluted in […]. The eluate was concentrated by drying under vacuum and resuspended in 0.1% TFA in water. 0.1% TFA in water was used as ‘blank’ for cell culture media and purified cell lysate ELISAs. Excess samples were stored at −80° C. for later analyses. Total GLP-1 amounts in the cell culture media (secreted) and cell lysates were calculated using a standard curve provided in the EIA kit.

Data set [2] addresses T1, human TGR5 (Homo sapiens, UniProt Q8TDU6).
T1 construct: expressed in transfected cells; host or cells: HEK293T
T1 sequence (Q8TDU6 1-330): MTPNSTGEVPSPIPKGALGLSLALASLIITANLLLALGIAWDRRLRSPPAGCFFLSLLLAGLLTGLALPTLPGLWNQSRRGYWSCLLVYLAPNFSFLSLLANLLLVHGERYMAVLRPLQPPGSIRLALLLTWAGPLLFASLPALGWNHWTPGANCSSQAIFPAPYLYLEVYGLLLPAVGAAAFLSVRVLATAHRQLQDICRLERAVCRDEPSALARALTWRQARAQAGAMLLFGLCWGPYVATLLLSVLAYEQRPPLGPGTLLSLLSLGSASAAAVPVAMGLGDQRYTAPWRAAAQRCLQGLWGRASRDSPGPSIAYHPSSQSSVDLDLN
The data set is described as follows: Luciferase reporter assay for human TGR5 activation in HEK293T cells overexpressing human TGR5. Conditions: for TGR5 activation: HEK293T cells overexpressing human TGR5, luminescence readout; for EC50: HEK293T cells overexpressing human TGR5. Type of data set: cell-based. The protocol: Human TGR5 was overexpressed in HEK93T cells along with a luciferase-based TGR5 reporter plasmid. Cells were then incubated with different concentrations of compounds overnight, and TGR5 activation was measured as a luminescence readout.
Plasmids and transient transfections. Human TGR5 was cloned using cDNA from human Caco-2 cells as template and a forward primer with an EcoRIrestriction-site (5′-[…]-3′) and a reverse primer with a XhoI-site (5′-[…]-3′). The PCR product was cloned into the pCDNA 3.1+plasmid (Promega Corporation, Madison, Wis.) and transfected at a concentration of 0.4 μg/ml of media. For luciferase reporter assays for TGR5 activation, the pGL4.29[luc2P/CRE/Hygro] plasmid (Promega Corporation), and the pGL4.74[hRluc/CMV] plasmid (Promega Corporation) were used at concentration of 2 μg/ml and 0.05 μg/ml of media respectively. All plasmids were transfected using Opti-MEM (Gibco) and Lipofectamine 2000 (Invitrogen, Life Technologies, Grand Island, N.Y., USA) according to manufacturer's instructions. Plasmid transfection were performed in antibiotic-free media (MEM for HEK293T and RPMI for Matrigel-attached NCI-H716 cells) with 10% FBS. After overnight incubation, compounds were added in complete media and incubated overnight. Cells were harvested the next day for luciferase assay.
Luciferase reporter assay. Luminescence was measured using the Dual-Luciferase Reporter Assay System (Promega Corporation) according to manufacturer's instructions. Cells were washed gently with PBS and lysed in PLB from the kit. Matrigel-attached cells were scraped in PLB. Luminescence was measured using the SpectraMax M5 plate reader (Molecular Devices, San Jose, Calif.) at the ICCB-Longwood Screening Facility at Harvard Medical School. Luminescence was normalized to Renilla luciferase activity and percentage relative luminescence was calculated compared to DMSO control.
On the technique in general: In a reporter assay the amount or activity of a reporter protein is the signal.

In data set [3] the test system is DIO mice. Put plainly: Acute treatment of DIO mice via duodenal and rectal catheters: GLP-1 and blood glucose. The class given is in vivo, mouse. Conditions: HFD-fed (DIO) mice, 1 mg, vs PBS; for systemic GLP-1 levels in vivo: within 15 minutes.
Method: Next, the ability of CA7S to stimulate GLP-1 secretion and improve hyperglycemia in vivo was evaluated. DIO mice were treated with either CA7S or PBS via duodenal and rectal catheters (FIG. 17A).
Data set [4] relates to NCI-H716 cells. The data set is described as follows: Intracellular calcium levels in NCI-H716 cells (L-cells). Type of data set: cell-based, human. Conditions: NCI-H716 cells (L-cells) in vitro. In general terms: Calcium flux is commonly read through the fluorescence of an indicator in the cells.
The subject of data set [5] is Caco-2 cells. Put plainly: Caco-2 cell viability assay (CellTiter-Glo, ATP luminescence). Type of data set: cell-based. Conditions: concentrations up to 3 mM. As to the method: Compounds were also tested for toxicity using Caco-2 cells, a human intestinal epithelial cancer cell line. Caco-2 cells were incubated with compounds for 16 hours and cell death was determined using a luminescence assay measuring ATP levels as a readout for cell viability.
Cell viability assay. Caco-2 cells were treated with compounds diluted in DMSO in complete MEM media. The concentration of DMSO was kept constant and used as a negative control. Cells were incubated with compounds overnight at 37° C. in an atmosphere of 5% CO2. The next day, cell viability was measured using CellTiter-Glo Luminescent Cell Viability Assay from Promega Corporation according to manufacturer's instructions. Luminescence was measured using the SpectraMax M5 plate reader (Molecular Devices, San Jose, Calif.) at the ICCB-Longwood Screening Facility at Harvard Medical School. Luminescence was normalized to DMSO control and percentage relative luminescence was calculated compared to DMSO control.
On the technique in general: Cellular ATP, detected with luciferase, serves as a proxy for viable cell number.

The nature of data set [6]: Stability after incubation in buffer at physiological pHs (UPLC-MS). Type of data set: physicochemical. Conditions: 37° C. in buffer at physiological pHs.
Setting [7] is: listed as cholic acid 7-sulfate.
Setting [8] is: listed as Cholic acid 7-sulfate.
[9] abbreviates: HFD-fed mice, acute cholic acid 7-sulfate treatment.

“Also recorded” adds a separate entry of the source.

For `C[C@H](CCC(=O)O)[C@H]1CCC2[C@H]3C(CC[C@@]21C)[C@@]1(C)CC[C@@H](O)C[C@H]1C[C@H]3S(=O)(=O)O` (stereo partly drawn) [Compound 6, (4R)-4-((3R,5S,7R,8R,10S,13R,17R)-3-hydroxy-10,13-dimethyl-7-sulfohexadecahydro-1H-cyclopenta[a]phenanthren-17-yl)pentanoic acid], in data set [1], the GLP-1 secretion result was “induced an increase in GLP-1 synthesis and secretion”; the “total GLP-1 (GLP-1 synthesis)” value is “increased total GLP-1; also recorded: induced an increase in GLP-1 synthesis and secretion”. The TGR5 activation result in data set [2] is on record as “induced TGR5 activation in a dose-dependent manner; also recorded: activated TGR5”.

In the case of `C[C@H](CCC(=O)O)[C@H]1CC[C@H]2[C@@H]3[C@H](OS(=O)(=O)O)C[C@@H]4C[C@H](O)CC[C@]4(C)[C@H]3C[C@H](O)[C@]12C` [CA7S, cholic acid 7-sulfate], the “blood glucose levels in vivo” value in data set [3] (within 15 min) is given as “reduced blood glucose levels”. Also, the “systemic GLP-1 levels in vivo” value in data set [3] is listed as “increased systemic GLP-1 levels”; in data set [3] (setting [7]), “induced GLP-1 levels”. Besides, the “GLP-1 secretion by CA7S extracted from cecal contents of SG mice” value in data set [1] is “also induced GLP-1 secretion in vitro”; in data set [1] (setting [7]), “exhibit activity inducing GLP-1 secretion”. Also, the results for the “GLP-1 secretion after siRNA-mediated knockdown of TGR5” value in data set [1] and in data set [1] (setting [7]) were “abolished” and “abolished GLP-1 secretion”, respectively. Besides, the GLP-1 secretion entry is given as “induced GLP-1 secretion to a similar degree as TDCA in a dose-dependent manner” in data set [1] and “induces GLP-1 secretion in vitro better than the known GLP-1 inducer TDCA” in data set [1] (setting [8]). For the same compound, the results for the intracellular calcium levels entry in data set [4] and in data set [4] (setting [8]) were “dose-dependent increase in calcium levels” and “increased calcium levels”, respectively. The “Cholic acid 7-sulfate concentration (mean ± SEM), Cecum” value under setting [9] is 2577 ± 185.3 pmol/mg. In addition, the “Cholic acid 7-sulfate concentration (mean ± SEM), Hepatic portal vein” value under setting [9] is 6.128 ± 2.111 pmol/mg. Moreover, the “CA7S in cecal contents, on average” value (administration of 1 mg, duodenal and rectal catheters) is 2500 pmol/mg wet mass. The “cholic acid 7-sulfate in the cecum” value (dosing with 1 mg) is ~2500 µM. Besides, the “amounts in systemic circulation and portal vein (gut restriction)” value (ectopic introduction in mice, listed as cholic acid 7-sulfate) is “only minor amounts”. Besides, the TGR5 activation entry in data set [2] is reported as “activated human TGR5 in a dose-dependent manner”; in data set [2] (setting [8]), “induces TGR5 activation”. The entries for the “viability of Caco-2 cells” value in data set [5] and in data set [5] (setting [8]) were “does not affect the viability” and “no toxicity”, respectively. Moreover, the pH stability entry in data set [6] is “stable at physiological pHs”; in data set [6] (setting [8]) it was “stable in a wide range of pHs”.

What is called EC50 is the midpoint of the concentration-response curve. Read a high EC50 as lower potency in that assay. On to `C[C@H](CCC(=O)O)[C@H]1CC[C@H]2[C@@H]3[C@H](NS(=O)(=O)O)C[C@@H]4C[C@H](O)CC[C@]4(C)[C@H]3C[C@H](O)[C@]12C` [Compound 1], for which, in data set [1], the GLP-1 secretion result is “induce GLP-1 synthesis and secretion”; the “total GLP-1 (GLP-1 synthesis)” value is “increased total GLP-1; also recorded: induce GLP-1 synthesis and secretion”. In data set [2], the midpoint of the response, the EC50, lay at 2400 nM and the TGR5 activation entry is “induced TGR5 activation in a dose-dependent manner; also recorded: activate TGR5”.

Consider `C[C@H](CCC(=O)O)[C@H]1CC[C@H]2[C@@H]3[C@H](NS(=O)(=O)O)[C@H](O)[C@@H]4C[C@H](O)CC[C@]4(C)[C@H]3CC[C@]12C` [Compound 3], for which, in data set [1], the GLP-1 secretion entry was “induced GLP-1 secretion; also recorded: induce GLP-1 synthesis and secretion”; the “total GLP-1 (GLP-1 synthesis)” value was “increased total GLP-1; also recorded: induce GLP-1 synthesis and secretion”. Also, in data set [2], the TGR5 activation result was “induced TGR5 activation in a dose-dependent manner; also recorded: activate TGR5”.

Regarding `C[C@H](CCC(=O)O)[C@H]1CC[C@H]2[C@@H]3[C@H](O)C[C@@H]4C[C@H](O)CC[C@]4(C)[C@H]3C[C@H](O)[C@]12C` [CA, cholic acid], the values for the GLP-1 secretion entry in data set [1] and in data set [1] (listed as cholic acid) were “had no effect on GLP-1 secretion” and “had no effect”, respectively.

As for `C[C@H](CCC(=O)O)[C@H]1CC[C@H]2[C@@H]3[C@H](NS(=O)(=O)O)C[C@@H]4C[C@H](O)CC[C@]4(C)[C@H]3CC[C@]12C` [Compound 2], in data set [1], the GLP-1 secretion entry is “induced GLP-1 secretion; also recorded: induce GLP-1 synthesis and secretion”; the “total GLP-1 (GLP-1 synthesis)” value was “increased total GLP-1; also recorded: induce GLP-1 synthesis and secretion”. Also, in data set [2], the EC50 worked out at 1700 nM and the TGR5 activation entry is reported as “induced TGR5 activation in a dose-dependent manner; also recorded: activate TGR5”.

With `C[C@H](CCC(=O)NCCS(=O)(=O)O)[C@H]1CC[C@H]2[C@@H]3CC[C@@H]4C[C@H](O)CC[C@]4(C)[C@H]3C[C@H](O)[C@]12C` [TDCA, tauro-deoxycholic acid], the “GLP-1 secretion after siRNA-mediated knockdown of TGR5” value in data set [1] is reported as “abolished”.
